Series [1] relates to vascularized liver model. The experiment in a line: Vascular toxicity: CD31 immunostaining and blood vessel length after monocrotaline (Test Example 5). It is filed as cell-based, human. To be noted: vascularized liver model compared to other models; 0 to 600 µM added on Day 7, 7 further days; relative to no monocrotaline = 100%. The method, then:
(§1) Except for using a 24-transwell as the culture vessel, culturing a cell mixture of 1.95 × 10^4 human hepatocytes (PXB Cells (registered trademark); manufactured by PhoenixBio Co., Ltd.) and 3.0 × 10^3 immortalized sinusoidal endothelial cells (SEC; manufactured by Sciencell, Product No. 5000) using the HCM medium including 50 ng/mL VEGF-A and 50 ng/mL VEGF-C as vascular development factors and 1 v/v% vascular maintenance factor cocktail,culturing a cell mixture of human hepatocytes (PXB Cells (registered trademark); manufactured by PhoenixBio Co., Ltd.), 7.5 × 10^3 immortalized sinusoidal endothelial cells (SEC, manufactured by Sciencell, Product No. "5000"), and 3.0 × 10^3 hepatic stellate cells (LX2; manufactured by Sigma-Aldrich) using the HCM medium including 1 v/v% vascular maintenance factor cocktail, orculturing a cell mixture of 2.1 × 10^3 immortalized sinusoidal endothelial cells (SEC; manufactured by Sciencell, Product No. "5000") and 9.0 × 10^3 hepatic stellate cells (LX2; manufactured by Sigma-Aldrich) using the HCM medium including 1 v/v% vascular maintenance factor cocktail, cell mixtures were cultured and cell structures were obtained in the same manner as in Test Example 4. […]
In addition, vascular structures were extracted from the microscopic images shown in FIGS. 8 and 9, and the blood vessel lengths of the cell structures were measured. […]

Series [2] relates to vascularized liver model. The series can be described thus: Cell viability by ATP assay (CellTiter-Glo 3D) after monocrotaline (Test Example 5). It is filed as cell-based, human. Particulars: vascularized liver model compared to other models, 0 to 600 µM added on Day 7, 7 further days. The procedure:
as §1
In addition, the cell viability of the similarly produced cell structure was also quantified by an ATP assay. […]
Background: Cellular ATP, detected with luciferase, serves as a proxy for viable cell number.

In patent EP4692321A1, “CELL STRUCTURE PRODUCTION METHOD” (Toppan Holdings Inc., priority 2023, dated 2024) one finds blood vessel length and cell viability data, which are given here for 1 compound.

Consider `C[C@H]1C(=O)O[C@@H]2CCN3CC=C(COC(=O)[C@](C)(O)[C@]1(C)O)[C@H]23` [monocrotaline], for which the blood vessel length result with vascularized liver model [1] is “notably shorter blood vessel length”. Moreover, the cell viability result in the series with vascularized liver model [2] was “concentration-dependent decrease in cell viability”.
